Experimental data taken from ChEMBL document CHEMBL4673260, “Pyridine alkaloids with activity in the central nervous system” (Bioorg Med Chem, 2020).
One block for each molecule: values may come before it.

Tests used:
[1] = target: T1, Neuronal acetylcholine receptor; alpha4/beta2 (Rattus norvegicus, UniProt P09483+P12390)
[2] = target: Neuronal acetylcholine receptor subunit alpha-7 (Rattus norvegicus) (UniProt Q05941); assay: Potency index, ratio of nicotine EC50 to test compound EC50 for rat alpha7 nAChR
Neuronal acetylcholine receptor subunit alpha-7 (Rattus norvegicus), sequence (Q05941 whole entry): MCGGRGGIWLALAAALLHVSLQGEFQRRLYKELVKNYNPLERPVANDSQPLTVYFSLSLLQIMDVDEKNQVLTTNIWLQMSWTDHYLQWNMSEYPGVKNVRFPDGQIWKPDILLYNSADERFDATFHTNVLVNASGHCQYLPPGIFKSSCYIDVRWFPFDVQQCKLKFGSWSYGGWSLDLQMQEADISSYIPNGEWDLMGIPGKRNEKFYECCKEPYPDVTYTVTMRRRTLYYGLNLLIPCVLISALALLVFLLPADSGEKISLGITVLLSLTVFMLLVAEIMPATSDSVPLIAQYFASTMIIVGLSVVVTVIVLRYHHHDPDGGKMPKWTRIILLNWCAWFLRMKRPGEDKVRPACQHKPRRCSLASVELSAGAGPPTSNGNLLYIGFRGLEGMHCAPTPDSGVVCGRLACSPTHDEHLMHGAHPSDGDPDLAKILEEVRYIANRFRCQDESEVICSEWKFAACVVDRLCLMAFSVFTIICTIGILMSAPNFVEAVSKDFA

[3] = target: T1, Neuronal acetylcholine receptor; alpha4/beta2; assay: Binding affinity to rat alpha4beta2 nAChR; type: protein-complex assay
[4] = target: T2, Neuronal acetylcholine receptor subunit alpha-7 (Rattus norvegicus, UniProt Q05941)
T2 sequence (Q05941 whole entry): as above

[5] = target: Neuronal acetylcholine receptor subunit alpha-7 (Rattus norvegicus) (UniProt Q05941); assay: Potency index, ratio of nicotine Ki to test compound Ki for rat alpha7 nAChR
[6] = target: T2, Neuronal acetylcholine receptor subunit alpha-7; remark: listed apart in the source
[7] = target: T3, Neuronal acetylcholine receptor; alpha4/beta2 (Rattus norvegicus) (UniProt P09483+P12390); assay: Potency index, ratio of nicotine EC50 to test compound EC50 for agonist activity at rat alpha4beta2 nAChR; type: protein-complex assay
Mus musculus [8] = organism: Mus musculus; assay: animal or person
[9] = Toxicity in iv dosed rat; type: organism-based; conditions: in vivo
[10] = Displacement of [3H]-(-)-nicotine from rat cerebral cortex nAChR incubated for 60 mins by liquid scintillation spectrometry
[11] = target: Neuronal acetylcholine receptor subunit alpha-7 (Homo sapiens, UniProt P36544)
Mus musculus [12] = organism: Mus musculus; assay: animal or person; remark: listed apart in the source
Mus musculus [13] = organism: Mus musculus; assay: animal or person; remark: listed apart in the source
[14] = target: GABA-A receptor alpha-1/beta-1 (Bos taurus, UniProt P08219+P08220)
GABA-A receptor alpha-1/beta-1, sequence (P08220 whole entry): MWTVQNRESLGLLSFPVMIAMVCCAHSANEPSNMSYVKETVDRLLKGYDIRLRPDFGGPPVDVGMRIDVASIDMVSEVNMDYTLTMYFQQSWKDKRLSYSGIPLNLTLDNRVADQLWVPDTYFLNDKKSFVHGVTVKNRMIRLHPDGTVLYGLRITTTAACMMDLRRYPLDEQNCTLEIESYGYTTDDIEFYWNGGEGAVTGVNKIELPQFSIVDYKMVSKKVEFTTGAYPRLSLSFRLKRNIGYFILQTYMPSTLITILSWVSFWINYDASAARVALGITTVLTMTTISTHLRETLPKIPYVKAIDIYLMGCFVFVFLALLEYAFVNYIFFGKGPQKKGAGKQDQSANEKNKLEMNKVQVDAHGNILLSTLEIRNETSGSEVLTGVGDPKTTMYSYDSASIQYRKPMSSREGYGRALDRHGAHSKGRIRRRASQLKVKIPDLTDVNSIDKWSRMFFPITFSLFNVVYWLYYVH
GABA-A receptor alpha-1/beta-1, sequence (P08219 whole entry): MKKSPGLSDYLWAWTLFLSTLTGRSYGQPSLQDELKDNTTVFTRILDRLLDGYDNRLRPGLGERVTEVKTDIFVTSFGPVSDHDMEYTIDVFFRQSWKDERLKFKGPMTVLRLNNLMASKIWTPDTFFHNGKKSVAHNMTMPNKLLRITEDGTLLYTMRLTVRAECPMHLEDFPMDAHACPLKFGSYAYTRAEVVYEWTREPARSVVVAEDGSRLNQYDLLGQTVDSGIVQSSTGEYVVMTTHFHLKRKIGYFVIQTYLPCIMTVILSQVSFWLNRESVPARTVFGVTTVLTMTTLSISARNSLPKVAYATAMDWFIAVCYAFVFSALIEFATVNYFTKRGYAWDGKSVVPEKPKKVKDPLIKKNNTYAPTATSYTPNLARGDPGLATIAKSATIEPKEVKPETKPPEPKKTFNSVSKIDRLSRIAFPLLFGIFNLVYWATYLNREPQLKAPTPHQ

Acetylcholinesterase = Acetylcholinesterase (Bos taurus, UniProt P23795)
Acetylcholinesterase, sequence (P23795 whole entry): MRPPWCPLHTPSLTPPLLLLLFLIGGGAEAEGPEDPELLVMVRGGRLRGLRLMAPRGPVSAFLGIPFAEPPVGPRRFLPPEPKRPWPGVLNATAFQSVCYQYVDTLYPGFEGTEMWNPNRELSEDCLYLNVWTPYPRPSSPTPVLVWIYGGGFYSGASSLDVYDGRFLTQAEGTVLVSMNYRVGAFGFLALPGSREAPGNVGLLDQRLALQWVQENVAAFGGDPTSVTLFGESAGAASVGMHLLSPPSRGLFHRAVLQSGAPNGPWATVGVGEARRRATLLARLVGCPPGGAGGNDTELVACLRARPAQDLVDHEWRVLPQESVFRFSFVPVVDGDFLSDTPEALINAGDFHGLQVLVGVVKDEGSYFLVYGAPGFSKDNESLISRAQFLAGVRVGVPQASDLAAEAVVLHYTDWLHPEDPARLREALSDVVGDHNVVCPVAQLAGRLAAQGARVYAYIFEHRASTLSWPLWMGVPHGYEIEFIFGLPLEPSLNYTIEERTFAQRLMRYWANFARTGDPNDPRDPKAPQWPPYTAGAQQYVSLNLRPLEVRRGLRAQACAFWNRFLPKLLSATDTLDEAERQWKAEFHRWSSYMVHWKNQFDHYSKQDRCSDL

[15] = Displacement of [3H]nicotine from angiotensin II receptor (unknown origin); parameters: species or system Homo sapiens
[16] = Displacement of [3H]nicotine from Leukotriene B4 receptor (unknown origin); parameters: species or system Homo sapiens
Rattus norvegicus [17] = assay: Memory enhancing effect in Sprague-Dawley rat model of ibotenic-acid-induced impairment of forebrain cholinergic projection system assessed as improvement in reference memory at 0.36 to 1.4 micromol/kg, po by radial arm maze test relative to control; type: functional; conditions: dose 0.36-1.4 µmol/kg
[18] = In vivo agonist activity at nAChR in rat assessed as serotonin level in cortex at 3.6 micromol/kg, sc by microdialysis relative to control; type: functional; conditions: dose 3.6 µmol/kg
[19] = In vivo agonist activity at nAChR in rat assessed as acetylcholine level in cortex at 3.6 micromol/kg, sc by microdialysis relative to control; type: functional; conditions: dose 3.6 µmol/kg
[20] = target: T3, Neuronal acetylcholine receptor; alpha4/beta2 (Rattus norvegicus); assay: Agonist activity at alpha4beta2 nAChR in rat thalamic synaptosomes assessed as 86Rb efflux relative to tetramethylammonium; type: subcellular; conditions: Thalamus, filed as agonist
[21] = Displacement of [3H]nicotine from sodium channel site2 (unknown origin); parameters: species or system Homo sapiens
[22] = target: Endothelin receptor type B (Homo sapiens, UniProt P24530); assay: Displacement of [3H]nicotine from Endothelin receptor type B (unknown origin)
Rattus norvegicus [23] = assay: Memory enhancing effect in rat model of mecamylamine-induced amnesia assessed as decrease in latency to find platform at 0.3 to 3 micromol/kg, po by water-navigation test relative to control; type: functional; parameters: scale not given: the % may be the effect or the level left; conditions: dose 0.3-3 µmol/kg; at 0.3 to 3 µmol/kg
[24] = target: Muscarinic acetylcholine receptor M1 (Homo sapiens, UniProt P11229); assay: Displacement of [3H]nicotine from muscarinic M1 receptor (unknown origin)
[25] = Acute toxicity in po dosed mouse administered as single dose for 28 days; type: organism-based; conditions: in vivo, time 28 day
[26] = Displacement of [3H]nicotine from neurokinin receptor (unknown origin); parameters: species or system Homo sapiens
D(3) dopamine receptor = D(3) dopamine receptor (Homo sapiens, UniProt P35462); assay: Displacement of [3H]nicotine from dopamine D3 receptor (unknown origin)
[27] = target: 5-hydroxytryptamine receptor 1A (Homo sapiens, UniProt P08908); assay: Displacement of […] from 5-hydroxytryptamine receptor 1A (unknown origin)
[28] = target: Gastrin/cholecystokinin type B receptor (Homo sapiens, UniProt P32239); assay: Displacement of [3H]nicotine from cholecystokinin receptor type B (unknown origin)
[29] = target: Cholecystokinin receptor type A (Homo sapiens, UniProt P32238); assay: Displacement of [3H]nicotine from cholecystokinin receptor type A (unknown origin)
Cholecystokinin receptor type A, sequence (P32238 whole entry): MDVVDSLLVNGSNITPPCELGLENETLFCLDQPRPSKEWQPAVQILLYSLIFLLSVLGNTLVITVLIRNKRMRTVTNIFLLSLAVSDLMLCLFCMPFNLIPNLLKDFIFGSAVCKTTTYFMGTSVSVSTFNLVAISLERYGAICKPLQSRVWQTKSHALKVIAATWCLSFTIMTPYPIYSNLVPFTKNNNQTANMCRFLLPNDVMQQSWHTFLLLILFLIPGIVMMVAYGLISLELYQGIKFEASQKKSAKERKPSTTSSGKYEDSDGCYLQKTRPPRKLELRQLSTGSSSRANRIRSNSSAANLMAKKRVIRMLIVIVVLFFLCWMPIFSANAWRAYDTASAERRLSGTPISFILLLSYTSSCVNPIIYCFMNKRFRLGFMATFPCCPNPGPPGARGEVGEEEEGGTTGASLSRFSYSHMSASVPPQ

Thromboxane A2 receptor = Thromboxane A2 receptor (Homo sapiens, UniProt P21731); assay: Displacement of [3H]nicotine from Thromboxane A2 (unknown origin)
Thromboxane A2 receptor, sequence (P21731 whole entry): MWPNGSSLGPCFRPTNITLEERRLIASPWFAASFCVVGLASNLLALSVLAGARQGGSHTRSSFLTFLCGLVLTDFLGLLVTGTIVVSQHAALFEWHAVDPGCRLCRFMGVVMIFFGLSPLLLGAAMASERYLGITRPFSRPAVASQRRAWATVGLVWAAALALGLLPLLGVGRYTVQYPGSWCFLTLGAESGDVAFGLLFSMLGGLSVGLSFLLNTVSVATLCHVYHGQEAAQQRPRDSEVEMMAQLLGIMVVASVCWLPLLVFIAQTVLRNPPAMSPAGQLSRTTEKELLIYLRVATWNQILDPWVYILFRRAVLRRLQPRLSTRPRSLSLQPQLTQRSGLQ

[30] = In vivo agonist activity at nAChR in rat assessed as dopamine level in cortex at 3.6 micromol/kg, sc by microdialysis relative to control; type: functional; conditions: dose 3.6 µmol/kg
[31] = target: Muscarinic acetylcholine receptor M3 (Homo sapiens, UniProt P20309); assay: Displacement of [3H]nicotine from muscarinic M3 receptor (unknown origin)
B2 bradykinin receptor = B2 bradykinin receptor (Homo sapiens, UniProt P30411); assay: Displacement of […] from B2 bradykinin receptor (unknown origin)
B2 bradykinin receptor, sequence (P30411 whole entry): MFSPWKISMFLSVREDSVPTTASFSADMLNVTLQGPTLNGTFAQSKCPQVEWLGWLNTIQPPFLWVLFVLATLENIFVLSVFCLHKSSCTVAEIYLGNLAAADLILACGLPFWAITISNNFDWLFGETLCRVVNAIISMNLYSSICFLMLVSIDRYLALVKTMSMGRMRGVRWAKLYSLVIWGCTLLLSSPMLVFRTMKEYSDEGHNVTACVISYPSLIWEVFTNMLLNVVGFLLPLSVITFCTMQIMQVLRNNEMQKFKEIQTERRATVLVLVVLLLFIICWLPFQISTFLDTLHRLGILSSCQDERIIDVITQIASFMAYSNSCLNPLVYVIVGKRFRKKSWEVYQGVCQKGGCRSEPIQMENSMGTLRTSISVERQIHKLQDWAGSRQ

[32] = In vivo agonist activity at nAChR in rat assessed as nor-epinephrine level in cortex at 3.6 micromol/kg, sc by microdialysis relative to control; type: functional; conditions: dose 3.6 µmol/kg
[33] = target: T1, Neuronal acetylcholine receptor; alpha4/beta2; assay: Inhbition of [3H] nicotine binding to rat brain alpha4beta2 nAChR
Histamine H3 receptor = Histamine H3 receptor (Homo sapiens, UniProt Q9Y5N1); assay: Displacement of [3H]nicotine from Histamine H3 receptor (unknown origin)
[34] = target: T1, Neuronal acetylcholine receptor; alpha4/beta2; remark: listed apart in the source
[35] = target: T3, Neuronal acetylcholine receptor; alpha4/beta2 (Rattus norvegicus); assay: Agonist activity at rat alpha4beta2 expressed in Xenopus oocytes assessed as peak activation at 100 uM relative to control; type: cell-based; conditions: Oocyte, filed as agonist
[36] = Acute toxicity in po dosed dog administered as single dose for 28 days; type: organism-based, Canis lupus familiaris; conditions: in vivo, time 28 day
[37] = Acute toxicity in po dosed dog administered as repeated dose for 28 days; type: organism-based, Canis lupus familiaris; conditions: in vivo, time 28 day
[38] = target: 5-hydroxytryptamine receptor 3A (Homo sapiens, UniProt P46098); assay: Displacement of […] from 5-hydroxytryptamine receptor 3A (unknown origin)
Rattus norvegicus [39] = organism: Rattus norvegicus; assay: Agonist activity at nAChR in rat striatal synaptosomes assessed as [3H]dopamine release relative to tetramethylammonium; type: subcellular; conditions: Striatum, filed as agonist
Endothelin-1 receptor = Endothelin-1 receptor (Homo sapiens, UniProt P25101); assay: Displacement of [3H]nicotine from Endothelin receptor type A (unknown origin)
Rattus norvegicus [40] = assay: Cognitive enhancing effect in Wistar rat assessed as reversal of scopolamine-induced amnesia at 0.6 micromol/kg, sc by passive-avoidance test relative to control; type: functional; conditions: dose 0.6 µmol/kg
[41] = target: Glutamate [NMDA] receptor; assay: Displacement of [3H]nicotine from NMDA receptor (unknown origin); type: protein-complex assay, Homo sapiens
[42] = Displacement of [3H]nicotine from dopamine D4.2 receptor (unknown origin); parameters: species or system Homo sapiens
[43] = target: Muscarinic acetylcholine receptor M2 (Homo sapiens, UniProt P08172); assay: Displacement of [3H]nicotine from muscarinic M2 receptor (unknown origin)
[44] = target: Neuropeptide Y receptor type 2 (Homo sapiens, UniProt P49146); assay: Displacement of [3H]nicotine from NPY2R (unknown origin)
[45] = target: 5-hydroxytryptamine receptor 2A (Homo sapiens, UniProt P28223); assay: Displacement of […] from 5-hydroxytryptamine receptor 2A (unknown origin)
5-hydroxytryptamine receptor 2A, sequence (P28223 whole entry): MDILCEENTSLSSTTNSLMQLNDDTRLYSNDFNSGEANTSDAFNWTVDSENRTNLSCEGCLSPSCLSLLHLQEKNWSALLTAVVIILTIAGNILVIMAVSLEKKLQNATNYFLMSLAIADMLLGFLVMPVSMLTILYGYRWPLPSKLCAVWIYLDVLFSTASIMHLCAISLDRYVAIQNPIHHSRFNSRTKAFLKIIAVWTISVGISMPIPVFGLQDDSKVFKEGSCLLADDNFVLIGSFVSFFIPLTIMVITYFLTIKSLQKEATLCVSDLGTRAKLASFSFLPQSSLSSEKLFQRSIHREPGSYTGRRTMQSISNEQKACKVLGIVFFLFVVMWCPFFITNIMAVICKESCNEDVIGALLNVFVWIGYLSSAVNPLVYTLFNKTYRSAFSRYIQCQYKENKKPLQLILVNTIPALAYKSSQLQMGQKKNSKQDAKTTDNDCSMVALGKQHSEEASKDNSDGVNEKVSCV

[46] = Acute toxicity in po dosed mouse administered as repeated dose for 28 days; type: organism-based; conditions: in vivo, time 28 day
[47] = Antagonist activity at 5HT1 in Wistar rat stomach fundus strip assessed as inhibition of 5-hydroxy-tryptamine evoked contraction preincubated for 20 mins followed by 5-HT addition; type: tissue-based
[48] = Neuroprotective activity in rat neuron assessed as glutamic acid induced intracellular calcium level at 0.5 ug/ml preincubated for 5 mins followed by glutamic acid stimulation and measured for 30 mins (reference value: 305%); type: functional; conditions: time 35 min
[49] = Neuroprotective activity in rat neuron assessed as NMDA-induced intracellular calcium level at 1 ug/ml preincubated for 5 mins followed by glutamic acid stimulation and measured for 20 mins (reference value: 235%); type: functional; conditions: time 25 min
[50] = Neuroprotective activity in rat neuron assessed as glutamic acid induced intracellular calcium level at 3 ug/ml preincubated for 5 mins followed by glutamic acid stimulation and measured for 30 mins (reference value: 305%); type: functional; conditions: time 35 min
[51] = Neuroprotective activity in rat neuron assessed as glutamic acid induced intracellular calcium level at 1 ug/ml preincubated for 5 mins followed by glutamic acid stimulation and measured for 30 mins (reference value: 305%); type: functional; conditions: time 35 min

T1 sequence (P09483 whole entry): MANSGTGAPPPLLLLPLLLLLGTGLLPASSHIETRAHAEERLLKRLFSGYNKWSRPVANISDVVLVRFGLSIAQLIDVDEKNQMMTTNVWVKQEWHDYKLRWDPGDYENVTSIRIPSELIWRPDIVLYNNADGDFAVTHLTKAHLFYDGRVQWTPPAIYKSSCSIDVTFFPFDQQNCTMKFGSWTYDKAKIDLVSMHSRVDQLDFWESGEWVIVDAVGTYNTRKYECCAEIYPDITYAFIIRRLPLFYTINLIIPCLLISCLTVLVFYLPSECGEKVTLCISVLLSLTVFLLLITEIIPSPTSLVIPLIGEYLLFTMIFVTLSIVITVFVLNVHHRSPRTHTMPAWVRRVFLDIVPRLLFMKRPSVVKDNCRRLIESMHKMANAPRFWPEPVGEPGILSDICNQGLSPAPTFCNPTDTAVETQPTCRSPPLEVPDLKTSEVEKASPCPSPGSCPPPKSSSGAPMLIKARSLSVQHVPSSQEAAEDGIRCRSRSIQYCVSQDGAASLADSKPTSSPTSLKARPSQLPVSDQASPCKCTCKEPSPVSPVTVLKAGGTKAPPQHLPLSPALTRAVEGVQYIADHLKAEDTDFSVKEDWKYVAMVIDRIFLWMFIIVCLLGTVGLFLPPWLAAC
T1 sequence (P12390 whole entry): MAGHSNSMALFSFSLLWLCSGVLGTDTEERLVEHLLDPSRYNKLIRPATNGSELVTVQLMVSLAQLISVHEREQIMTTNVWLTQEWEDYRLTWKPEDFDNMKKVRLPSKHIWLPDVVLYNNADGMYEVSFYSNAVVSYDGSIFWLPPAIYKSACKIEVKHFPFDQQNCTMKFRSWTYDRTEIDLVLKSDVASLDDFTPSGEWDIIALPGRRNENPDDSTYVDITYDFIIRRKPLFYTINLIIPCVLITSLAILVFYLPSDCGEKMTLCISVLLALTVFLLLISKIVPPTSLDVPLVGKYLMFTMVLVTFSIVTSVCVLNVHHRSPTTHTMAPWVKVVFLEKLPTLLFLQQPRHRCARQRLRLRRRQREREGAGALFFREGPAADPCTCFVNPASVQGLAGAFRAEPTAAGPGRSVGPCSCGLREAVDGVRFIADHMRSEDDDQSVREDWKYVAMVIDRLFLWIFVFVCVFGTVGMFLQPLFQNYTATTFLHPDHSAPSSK

SMILES: c1cncc(C2=NCCCC2)c1 [ANABASEINE]
EC50 [1]: 4.2 µM
Ratio EC50 [2]: 7
Ki [3]: 0.032 µM
EC50 [4]: 6.7 µM
Ratio Ki [5]: 7
Ki [6]: 0.058 µM
Ratio EC50 [7]: 3

SMILES: Clc1ccc(C2CC3CCC2N3)cn1 (stereo in doubt; (+)) [EPIBATIDINE]
ED50 (Mus musculus [8]): 0.0136 mg/kg
LD50 [9]: < 0.125 µmol/kg
IC50 [10]: 0.0001 µM
Ki [11]: 0.0022 µM
ED50 (Mus musculus [12]): 0.289 mg/kg
ED50 (Mus musculus [13]): 0.02 mg/kg

SMILES: C[n+]1cccc(C(=O)[O-])c1 [TRIGONELLINE]
Ki [14]: 0.013 µM
IC50 (Acetylcholinesterase): 233 µM

SMILES: CN(C)CC/C=C/c1cccnc1
IC50 [15]: > 10 µM
IC50 [16]: > 10 µM
fold change (FC) (Rattus norvegicus [17]): 2
Activity [18]: 170%
Activity [19]: 190%
Emax [20]: 79%
IC50 [21]: > 10 µM
IC50 [22]: > 10 µM
Activity (Rattus norvegicus [23]): 40%
IC50 [24]: > 10 µM
LD50 at 672 h [25]: 1.8e+06 µmol/kg
IC50 [26]: > 10 µM
IC50 (D(3) dopamine receptor): > 10 µM
IC50 [27]: > 10 µM
IC50 [28]: > 10 µM
IC50 [29]: > 10 µM
IC50 (Thromboxane A2 receptor): > 10 µM
Activity [30]: 150%
IC50 [31]: > 10 µM
IC50 (B2 bradykinin receptor): > 10 µM
Activity [32]: 150%
Ki [33]: 0.026 µM
IC50 (Histamine H3 receptor): > 10 µM
EC50 [34]: 0.732 µM
Activity [35]: 492%
LD50 at 672 h [36]: 1.8e+06 µmol/kg
LD50 at 672 h [37]: 1.8e+06 µmol/kg
IC50 [38]: > 10 µM
Emax (Rattus norvegicus [39]): 81%
IC50 (Endothelin-1 receptor): > 10 µM
Activity (Rattus norvegicus [40]): 50%
IC50 [41]: > 10 µM
IC50 [42]: > 10 µM
IC50 [43]: > 10 µM
IC50 [44]: > 10 µM
IC50 [45]: > 10 µM
LD50 at 672 h [46]: 1.8e+06 µmol/kg

IC50 [47]: 80 µM
SMILES: O=C([O-])c1ccc[n+](CCOC(=O)c2cc(Br)c[nH]2)c1

SMILES: O=C([O-])c1ccc[n+](CCOC(=O)c2ccc[nH]2)c1
Activity [48]: 58.1%
Activity [49]: 63.5%
Activity [50]: 25.1%
Activity [51]: 65.4%
